Experimental data taken from paper PMC12377202, “Design, synthesis, and cytotoxic evaluation of quinazoline-based derivatives as VEGER-2 inhibitors: comparative study against EGFR kinase activity, induction of apoptosis, and molecular docking study” (RSC Advances, 2025).

Columns and labels:
Type in all cases: cell-based, human
TNF-alpha = TNF-alpha level in HepG-2 cells; conditions: control 43.48
Method: (§1) All synthesized compounds were tested at their cytotoxic concentrations in HepG-2 cells for analysis of gene expression levels of apoptotic markers caspase-3, caspase-9, TNF-α, and IL-6 proteins, and only two active compounds were tested for BAX and Bcl-2 proteins.
(§2) through Flow cytometric analysis.
(§3) Pellets were collected again and incubated with
(§4) Total RNA from vehicle-treated
(§5) (Thermo Scientific, USA).
(§6) All experiments were performed in […]

caspase-9 = test: Caspase-9 expression level in HepG-2 cells; conditions: for Caspase-9 ± SE: HepG-2, at IC50 concentrations, control 11.01; for caspase-9 expression level, fold increase: HepG-2, vs control cells
Method: as §1, §2, §3, §4, §5, §6

HepG-2 = test: MTT anti-proliferative assay, HepG-2; conditions: Homo sapiens, HepG2; for viability at 0.195 µg/mL / cytotoxicity at 0.195 µg/mL: HepG-2, 0.195 ug/ml; for cytotoxicity at 0.195 µg/mL / cytotoxicity at 0.391 µg/mL / cytotoxicity at 0.781 µg/mL / cytotoxicity at 1.563 µg/mL / cytotoxicity at 3.125 µg/mL / cytotoxicity at 6.25 µg/mL / cytotoxicity at 12.5 µg/mL / cytotoxicity at 25 µg/mL: read-out: Toxicity %; for viability at 0.391 µg/mL / cytotoxicity at 0.391 µg/mL: HepG-2, 0.391 ug/ml; for viability at 0.781 µg/mL / cytotoxicity at 0.781 µg/mL: HepG-2, 0.781 ug/ml; for viability at 1.563 µg/mL / cytotoxicity at 1.563 µg/mL: HepG-2, 1.563 ug/ml; for viability at 3.125 µg/mL / cytotoxicity at 3.125 µg/mL: HepG-2, 3.125 ug/ml; for viability at 6.25 µg/mL / cytotoxicity at 6.25 µg/mL: HepG-2, 6.25 ug/ml; for viability at 12.5 µg/mL / cytotoxicity at 12.5 µg/mL: HepG-2, 12.5 ug/ml; for viability at 25 µg/mL / cytotoxicity at 25 µg/mL: HepG-2, 25 ug/ml; for IC50: MTT, HepG-2, read-out: Cytotoxicity against cancer cells IC50 HepG-2
K-562 = test: MTT anti-proliferative assay, K-562; conditions: Homo sapiens, K562; for viability at 0.195 µmol / cytotoxicity at 0.195 µmol: K-562, 0.195 umol; for cytotoxicity at 0.195 µmol / cytotoxicity at 0.391 µmol / cytotoxicity at 0.781 µmol / cytotoxicity at 1.563 µmol / cytotoxicity at 3.125 µmol / cytotoxicity at 6.25 µmol / cytotoxicity at 12.5 µmol / cytotoxicity at 25 µmol: read-out: Toxicity %; for viability at 0.391 µmol / cytotoxicity at 0.391 µmol: K-562, 0.391 umol; for viability at 0.781 µmol / cytotoxicity at 0.781 µmol: K-562, 0.781 umol; for viability at 1.563 µmol / cytotoxicity at 1.563 µmol: K-562, 1.563 umol; for viability at 3.125 µmol / cytotoxicity at 3.125 µmol: K-562, 3.125 umol; for viability at 6.25 µmol / cytotoxicity at 6.25 µmol: K-562, 6.25 umol; for viability at 12.5 µmol / cytotoxicity at 12.5 µmol: K-562, 12.5 umol; for viability at 25 µmol / cytotoxicity at 25 µmol: K-562, 25 umol; for IC50: MTT, K-562, read-out: Cytotoxicity against cancer cells IC50 K-562
IL-6R = IL-6R level in HepG-2 cells; conditions: for IL-6R ± SE: HepG-2, at IC50 concentrations; for IL-6R ± SE / IL-6 ±SE: control 44.10; for IL-6R protein level: HepG-2, control 44.10%; for IL-6 ±SE: raw data, HepG2
Method: as §1, §2, §3, §4, §5, §6

MCF-7 = test: MTT anti-proliferative assay, MCF-7; conditions: Homo sapiens, MCF7; for viability at 0.195 µmol / cytotoxicity at 0.195 µmol: MCF-7, 0.195 umol; for cytotoxicity at 0.195 µmol / cytotoxicity at 0.391 µmol / cytotoxicity at 0.781 µmol / cytotoxicity at 1.563 µmol / cytotoxicity at 3.125 µmol / cytotoxicity at 6.25 µmol / cytotoxicity at 12.5 µmol / cytotoxicity at 25 µmol: read-out: Toxicity %; for viability at 0.391 µmol / cytotoxicity at 0.391 µmol: MCF-7, 0.391 umol; for viability at 0.781 µmol / cytotoxicity at 0.781 µmol: MCF-7, 0.781 umol; for viability at 1.563 µmol / cytotoxicity at 1.563 µmol: MCF-7, 1.563 umol; for viability at 3.125 µmol / cytotoxicity at 3.125 µmol: MCF-7, 3.125 umol; for viability at 6.25 µmol / cytotoxicity at 6.25 µmol: MCF-7, 6.25 umol; for viability at 12.5 µmol / cytotoxicity at 12.5 µmol: MCF-7, 12.5 umol; for viability at 25 µmol / cytotoxicity at 25 µmol: MCF-7, 25 umol; for IC50: MTT, MCF-7, read-out: Cytotoxicity against cancer cells IC50 MCF-7
caspase-3 = test: Caspase-3 expression level in HepG-2 cells; conditions: for Caspase-3 ± SE: HepG-2, at IC50 concentrations, control 0.460; for caspase-3 expression level, fold increase: HepG-2, vs control cells
Method: as §1, §2, §3, §4, §5, §6

Compound: O=C(Cn1cnc2cc(Cl)ccc2c1=O)Nc1ccc(Cl)cc1 [8c, 2-(7-Chloro-4-oxoquinazolin-3(4H)-yl)-N-(4-chlorophenyl)acetamide]
- TNF-alpha ±SE (TNF-alpha; HepG-2, at IC50 concentrations): 9.13 ± 0.37 ng/L
- TNF-alpha ±SE (TNF-alpha; raw data, HepG2): 10.2 ng/L
- Caspase-9 ± SE (caspase-9): 26.98 ± 1.30 ng/L
- Caspase-9 ± SE (caspase-9; listed as R1): 26.98 ng/L
- caspase-9 expression level, fold increase (caspase-9): 2.5 fold
- viability at 0.195 µg/mL (HepG-2): 89.2%
- cytotoxicity at 0.195 µg/mL (HepG-2): 10.8%
- viability at 0.391 µg/mL (HepG-2): 65.9%
- cytotoxicity at 0.391 µg/mL (HepG-2): 34.1%
- viability at 0.781 µg/mL (HepG-2): 47.8%
- cytotoxicity at 0.781 µg/mL (HepG-2): 52.2%
- viability at 1.563 µg/mL (HepG-2): 29.9%
- cytotoxicity at 1.563 µg/mL (HepG-2): 70.1%
- viability at 3.125 µg/mL (HepG-2): 15.9%
- cytotoxicity at 3.125 µg/mL (HepG-2): 84.1%
- viability at 6.25 µg/mL (HepG-2): 11%
- cytotoxicity at 6.25 µg/mL (HepG-2): 89%
- viability at 12.5 µg/mL (HepG-2): 7.66%
- cytotoxicity at 12.5 µg/mL (HepG-2): 92.3%
- viability at 25 µg/mL (HepG-2): 6.7%
- cytotoxicity at 25 µg/mL (HepG-2): 93.3%
- IC50 (HepG-2): 734.4 ± 2.3 nM
- viability at 0.195 µmol (K-562): 80.8%
- cytotoxicity at 0.195 µmol (K-562): 19.2%
- viability at 0.391 µmol (K-562): 60.1%
- cytotoxicity at 0.391 µmol (K-562): 39.9%
- viability at 0.781 µmol (K-562): 34.4%
- cytotoxicity at 0.781 µmol (K-562): 65.6%
- viability at 1.563 µmol (K-562): 19.5%
- cytotoxicity at 1.563 µmol (K-562): 80.5%
- viability at 3.125 µmol (K-562): 13%
- cytotoxicity at 3.125 µmol (K-562): 87%
- viability at 6.25 µmol (K-562): 9.89%
- cytotoxicity at 6.25 µmol (K-562): 90.1%
- viability at 12.5 µmol (K-562): 8.25%
- cytotoxicity at 12.5 µmol (K-562): 91.7%
- viability at 25 µmol (K-562): 6.53%
- cytotoxicity at 25 µmol (K-562): 93.5%
- IC50 (K-562): 544.4 ± 3.2 nM
- IL-6R ± SE (IL-6R): 14.73 ± 1.06 ng/L
- IL-6R protein level (IL-6R): 14.73 ng/L
- IL-6 ±SE (IL-6R): 16.64 ng/L
- viability at 0.195 µmol (MCF-7): 46.1%
- cytotoxicity at 0.195 µmol (MCF-7): 53.9%
- viability at 0.391 µmol (MCF-7): 32.9%
- cytotoxicity at 0.391 µmol (MCF-7): 67.1%
- viability at 0.781 µmol (MCF-7): 20.3%
- cytotoxicity at 0.781 µmol (MCF-7): 79.7%
- viability at 1.563 µmol (MCF-7): 13.1%
- cytotoxicity at 1.563 µmol (MCF-7): 86.9%
- viability at 3.125 µmol (MCF-7): 10.2%
- cytotoxicity at 3.125 µmol (MCF-7): 89.8%
- viability at 6.25 µmol (MCF-7): 8.44%
- cytotoxicity at 6.25 µmol (MCF-7): 91.6%
- viability at 12.5 µmol (MCF-7): 8.05%
- cytotoxicity at 12.5 µmol (MCF-7): 92%
- viability at 25 µmol (MCF-7): 6.64%
- cytotoxicity at 25 µmol (MCF-7): 93.4%
- IC50 (MCF-7): 188 ± 2.6 nM
- Caspase-3 ± SE (caspase-3): 1.25 ± 0.090 ng/mL
- Caspase-3 ± SE (caspase-3; listed as R1): 1.25 ng/mL
- caspase-3 expression level, fold increase (caspase-3): 2.72 fold

Compound: O=C(Cn1cnc2cc(Cl)ccc2c1=O)Nc1ccc(F)c(Cl)c1 [8e, N-(3-Chloro-4-fluorophenyl)-2-(7-chloro-4-oxoquinazolin-3(4H)-yl)acetamide]
- TNF-alpha ±SE (TNF-alpha; HepG-2, at IC50 concentrations): 32.07 ± 2.32 ng/L
- TNF-alpha ±SE (TNF-alpha; raw data, HepG2): 27.34 ng/L
- Caspase-9 ± SE (caspase-9): 48.44 ± 1.24 ng/L
- Caspase-9 ± SE (caspase-9; listed as R5): 48.44 ng/L
- caspase-9 expression level, fold increase (caspase-9): 4.4 fold
- viability at 0.195 µg/mL (HepG-2): 93.8%
- cytotoxicity at 0.195 µg/mL (HepG-2): 6.15%
- viability at 0.391 µg/mL (HepG-2): 75.6%
- cytotoxicity at 0.391 µg/mL (HepG-2): 24.4%
- viability at 0.781 µg/mL (HepG-2): 62.3%
- cytotoxicity at 0.781 µg/mL (HepG-2): 37.7%
- viability at 1.563 µg/mL (HepG-2): 47.6%
- cytotoxicity at 1.563 µg/mL (HepG-2): 52.4%
- viability at 3.125 µg/mL (HepG-2): 23.1%
- cytotoxicity at 3.125 µg/mL (HepG-2): 76.9%
- viability at 6.25 µg/mL (HepG-2): 11.9%
- cytotoxicity at 6.25 µg/mL (HepG-2): 88.1%
- viability at 12.5 µg/mL (HepG-2): 9.45%
- cytotoxicity at 12.5 µg/mL (HepG-2): 90.5%
- viability at 25 µg/mL (HepG-2): 7.22%
- cytotoxicity at 25 µg/mL (HepG-2): 92.8%
- IC50 (HepG-2): 1436 ± 7.3 nM
- viability at 0.195 µmol (K-562): 52.8%
- cytotoxicity at 0.195 µmol (K-562): 47.2%
- viability at 0.391 µmol (K-562): 45.2%
- cytotoxicity at 0.391 µmol (K-562): 54.8%
- viability at 0.781 µmol (K-562): 31.6%
- cytotoxicity at 0.781 µmol (K-562): 68.4%
- viability at 1.563 µmol (K-562): 21.1%
- cytotoxicity at 1.563 µmol (K-562): 78.9%
- viability at 3.125 µmol (K-562): 10.3%
- cytotoxicity at 3.125 µmol (K-562): 89.7%
- viability at 6.25 µmol (K-562): 8.78%
- cytotoxicity at 6.25 µmol (K-562): 91.2%
- viability at 12.5 µmol (K-562): 7.43%
- cytotoxicity at 12.5 µmol (K-562): 92.6%
- viability at 25 µmol (K-562): 5.91%
- cytotoxicity at 25 µmol (K-562): 94.1%
- IC50 (K-562): 266.4 ± 1.7 nM
- IL-6R ± SE (IL-6R): 11.93 ± 0.25 ng/L
- IL-6R protein level (IL-6R): 11.93 ng/L
- IL-6 ±SE (IL-6R): 28.78 ng/L
- viability at 0.195 µmol (MCF-7): 81.5%
- cytotoxicity at 0.195 µmol (MCF-7): 18.5%
- viability at 0.391 µmol (MCF-7): 62.1%
- cytotoxicity at 0.391 µmol (MCF-7): 37.9%
- viability at 0.781 µmol (MCF-7): 32.7%
- cytotoxicity at 0.781 µmol (MCF-7): 67.3%
- viability at 1.563 µmol (MCF-7): 19%
- cytotoxicity at 1.563 µmol (MCF-7): 81%
- viability at 3.125 µmol (MCF-7): 12.8%
- cytotoxicity at 3.125 µmol (MCF-7): 87.2%
- viability at 6.25 µmol (MCF-7): 9.01%
- cytotoxicity at 6.25 µmol (MCF-7): 91%
- viability at 12.5 µmol (MCF-7): 7.65%
- cytotoxicity at 12.5 µmol (MCF-7): 92.3%
- viability at 25 µmol (MCF-7): 6.46%
- cytotoxicity at 25 µmol (MCF-7): 93.5%
- IC50 (MCF-7): 552.3 ± 1.7 nM
- Caspase-3 ± SE (caspase-3): 1.54 ± 0.11 ng/mL
- Caspase-3 ± SE (caspase-3; listed as R5): 1.54 ng/mL
- caspase-3 expression level, fold increase (caspase-3): 3.35 fold
